Experimental data published in patent US9308210B2, “Method for modulating canonical Wnt pathway using folate and inositol” (University of South Florida, priority 2009, dated 2016).
Counter-ions that a name gives are not always drawn.

Tests used:
[1] = tested on: wound area of mouse dorsum; assay: Mouse 3-mm excisional wound model with topical creams (FN, β-catenin, Lgr6 localization); assay type: in vivo; conditions: higher folate diet 10 mg/kg from one week prior to wounding
Description: For the mouse studies the animals were divided by random assignment into experimental groups, using both sexes. Folic acid and folic acid/myo-inositol in combination were topically administered to the wound directly with an inert vanishing cream (provided by Carrollwood Pharmacy) as the vehicle of administration or also in combination with an orally administered dietary folic acid supplement. […] The creams contained (i) FA only; two doses of […] combination of higher MI to FA ratio, (iii) a combination of lower MI to FA ratio, (iv) MI only and (v) vehicle control cream. […] The control animals were maintained on normal animal chow containing 3.3 mg/kg FA to maintain health of the animals. After wounding, animals were housed separately and maintained on their respective folate diets. The animals were maintained in cages that were wood chip free on a dust free base for the first several days, to prevent bedding and bedding dust from getting into the freshly made wounds to lessen chances of infection. The animals were anesthetized using isoflurane inhalation. One 3-mm excisional circular wound was made using a dermal biopsy punch, followed by application of the experimental or control topical cream on the wound. The excised area remained uncovered and healing was closely monitored daily until wound was closed. At day 15 after wounding, the animal was euthanized. […]

HTR-8/SVneo cells = assay: In vitro wound assay of human trophoblast cell migration; assay type: cell-based; conditions: HCy exposure experiments; scrape wound
Description: In previous studies by the inventors analyzing the effects of lithium and the metabolite homocysteine (HCy) on early heart development, the results were similar. Both factors inhibited Wnt/β-catenin-mediated gene expression during induction stages of cardiogenesis. […] Folate protects the embryo from these adverse effects (Han et al., 2009). It was also noted that normal placental development was adversely affected by Li and HCy. A human trophoblast cell line, HTR-8/SVneo cells, was used to determine whether Li or HCy affect the migration of these cells in vitro and whether FA or FA/myo-inositol would protect the cells from adverse effects of the two cardiac teratogens. HCy exposure experiments were conducted. […] The wound edges are depicted by a white line in B. In panel A, it can be seen that the wound area is smaller. Administration of a combination of FA/myo-inositol, FA alone or myo-inositol alone, enhanced the expression of NMHC-IIB and FN to facilitate cell migration.

C57BL/6 mouse embryos = assay: Morphometric measurements, resorptions and lethality of mouse embryos after Li or HCy exposure, FA rescue; assay type: in vivo; conditions: for Resorptions (percent): hydrochloride
Description: To determine whether the results in the avian system would extend to the mammalian system, the inventors conducted studies in the mouse embryo. All mice were maintained according to protocols approved by the Institutional Animal Care and Use Committee at the University of South Florida. The C57BL/6 mouse strain (Jackson Laboratories, Bar Harbor, Me.) was used throughout the study. E0.5 was defined as the morning when the vaginal sperm plug was detected. Timed pregnant mice were randomly allocated to receive a single dose of 100 μl of 6.25 mg/ml Li chloride, as determined previously (Chen et al., 2008), 100 μl of 75 μM HCy, or 100 μl of 6.25 mg/ml sodium chloride (control group); all treatments were given intraperitoneally (i.p). On E15.5, the utero-placental circulation of the pregnant mice, and the central and peripheral circulations of the embryos were examined non-invasively in utero using Doppler ultrasonography (Gui et al., 1996; Linask and Huhta, 2000). Sixty-eight embryos were exposed to Li, 59 to HCy and 42 to physiological saline.
An HCy concentration of 75 μM, used for maternal exposure, was determined empirically using different doses of HCy (i.e. 150, 75, 50 and 15 μM). The minimal teratogenic dose was determined to be 75 μM. […] The single i.p. injection of HCy at E6.75 produced a high number of valve defects (66%), as well as resorptions (46%). […] Because not all embryos within litters are at exactly the same stage of development, the variability of effects seen with either Li or HCy probably reflects the differences in developmental stage.
Following echo monitoring on E15.5, placental weight and morphometric measurements of crown-rump length and body weight were obtained. […] HCy administered on E6.75 induced valve defects in 66.1% of the embryos (39/59 embryos). Some litters were allowed to develop to E18.5.

Row | Structure (SMILES) | healing with dietary supplementation [1] | expression of NMHC-IIB and FN (HTR-8/SVneo cells) | Body Weight (C57BL/6 mouse embryos; E15.5 after exposure on E6.75) | CRL (C57BL/6 mouse embryos; E15.5 after exposure on E6.75) | Placenta Weight (C57BL/6 mouse embryos; E15.5 after exposure on E6.75) | embryonic lethality (C57BL/6 mouse embryos; acute single dose of HCy at E5.5) | Resorptions (embryos/total) (C57BL/6 mouse embryos; exposure on E6.75) | Resorptions (percent) (C57BL/6 mouse embryos; exposure on E6.75) | Resorptions (percent) (C57BL/6 mouse embryos; exposure on E6.75, listed as HCys) | placental weight, crown-rump length and body weight versus control embryos (C57BL/6 mouse embryos; single exposure on E6.75, E15.5)
1 | Nc1nc2ncc(CNc3ccc(C(=O)N[C@@H](CCC(=O)O)C(=O)O)cc3)nc2c(=O)[nH]1 [FA, folic acid] | no differences in healing | enhanced | – | – | – | – | – | – | – | –
2 | N[C@H]1CCSC1=O [HCy, L-homocysteine thiolactone hydrochloride] | – | – | 0.35 g | 13 mm | 0.11 g | 79% | 27/59 | 46% | 45.7% | significantly decreased
